One experiment has as its target T1, human liver cathepsin B (Homo sapiens, UniProt P07858).
T1 construct: purchased Sigma; host or cells: human liver (by the enzyme's name)
In words: Specificity assay, cathepsin B. The experiment is classed as biochemical. The settings on record: read-out: Cathepsin B activity in the specificity assays (IC50). How it is done:
The specificities of compounds of the present invention were determined against a variety of serine proteases: human neutrophil elastase (HNE), porcine pancreatic elastase (PPE) and human pancreatic chymotrypsin and one cysteine protease: human liver cathepsin B. In all cases a 96-well plate format protocol using calorimetric p-nitroaniline (pNA) substrate specific for each enzyme was used as described previously (PCT Patent Application No. WO 00/09543) with some modifications to the serine protease assays. All enzymes were purchased from Sigma while the substrates were from Bachem.
Each assay included a 2 hr enzyme-inhibitor pre-incubation at room temperature followed by addition of substrate and hydrolysis to ˜30% conversion as measured on a Spectramax Pro microplate reader. Compound concentrations varied from 100 to 0.4 micromolar (“μM”) depending on their potency. […]
The percentage of inhibition was calculated using the formula: [1−((UVinh−UVblank)/(UVctl−UVblank))]×100 […]

In experiment [1] the target is T2, HCV NS3/4A protease complex, J4L6S strain (1b genotype) (Hepatitis C virus genotype 1b, UniProt O92972, C1454S/C1711G).
T2 construct: DNA encoding the recombinant HCV NS3/4A protease complex (amino acids 1027 to 1711) for these strains; His tag (inferred from Ni-NTA purification and pET21b vector); made in house; host or cells: Escherichia coli BL21 (DE3)
In words: Recombinant HCV NS3/4A protease complex FRET peptide assay, J4L6S strain. Type of experiment: biochemical. The text has this: Recombinant HCV NS3/4A Protease Complex FRET Peptide Assay
The purpose of this in vitro assay was to measure the inhibition of HCV NS3 protease complexes, derived from the BMS strain, H77C strain or J416S strain, as described below, by compounds of the present invention. This assay provides an indication of how effective compounds of the present invention would be in inhibiting HCV proteolytic activity.
Serum from an HCV-infected patient was obtained from Dr. T. Wright, San Francisco Hospital. An engineered full-length cDNA (compliment deoxyribonucleic acid) template of the HCV genome (BMS strain) was constructed from DNA fragments obtained by reverse transcription-PCR (RT-PCR) of serum RNA (ribonucleic acid) and using primers selected on the basis of homology between other genotype 1a strains. From the determination of the entire genome sequence, a genotype 1a was assigned to the HCV isolate according to the classification of Simmonds et al. (See P Simmonds, K A Rose, S Graham, S W Chan, F McOmish, B C Dow, E A Follett, P L Yap and H Marsden, J. Clin. Microbiol., 31(6), 1493–1503 (1993)). […]

Molecules are shown by their SMILES.

T2 sequence (O92972 1027-1711 C1454S/C1711G, one chain of several): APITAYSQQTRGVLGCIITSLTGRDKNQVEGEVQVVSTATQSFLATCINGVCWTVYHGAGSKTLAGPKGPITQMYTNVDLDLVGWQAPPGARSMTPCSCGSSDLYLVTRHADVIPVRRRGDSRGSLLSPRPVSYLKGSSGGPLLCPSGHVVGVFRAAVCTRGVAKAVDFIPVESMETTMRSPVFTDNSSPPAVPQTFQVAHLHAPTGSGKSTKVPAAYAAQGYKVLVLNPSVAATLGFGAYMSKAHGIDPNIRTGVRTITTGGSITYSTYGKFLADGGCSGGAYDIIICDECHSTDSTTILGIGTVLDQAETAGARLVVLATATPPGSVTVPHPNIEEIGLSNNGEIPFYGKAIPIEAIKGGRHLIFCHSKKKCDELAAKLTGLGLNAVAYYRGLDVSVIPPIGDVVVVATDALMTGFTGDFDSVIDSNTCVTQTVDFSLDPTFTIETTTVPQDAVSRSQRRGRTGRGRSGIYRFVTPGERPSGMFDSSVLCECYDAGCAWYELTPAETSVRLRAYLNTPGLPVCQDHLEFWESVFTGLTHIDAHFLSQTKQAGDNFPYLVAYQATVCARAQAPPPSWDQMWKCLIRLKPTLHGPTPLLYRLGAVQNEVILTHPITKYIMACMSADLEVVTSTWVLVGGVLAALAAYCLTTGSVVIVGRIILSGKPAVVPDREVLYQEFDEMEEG

Broadly, the IC50 is the midpoint of a concentration-inhibition curve. Turning to `CC(C)(C)OC(=O)N[C@H]1CCCCC/C=C\[C@@H]2C[C@@]2(C(=O)NS(C)(=O)=O)NC(=O)[C@@H]2C[C@@H](Oc3nccc4ccccc34)CN2C1=O` [Compound 2, [18-(Isoquinolin-1-yloxy)-4-methanesulfonylaminocarbonyl-2,15-dioxo-3,16-diaza-tricyclo[14.3.0.0^4,6]nonadec-7-en-14-yl]-carbamic acid tert-butyl ester], the IC50 on human liver cathepsin B was more than 100000 nM; in experiment [1], 1.9 nM.

These data come from patent US7173004B2, “Macrocyclic isoquinoline peptide inhibitors of hepatitis C virus” (Bristol-Myers Squibb Company, priority 2003, dated 2007).
